We go through two molecules from US20240109880A1 (Insilico Medicine IP Limited, priority 2021, published 2024).

Each structure is given as a SMILES string. ≈ marks a conversion by molar mass, not a printed value.

For one data set, the target named is KAT6A (Homo sapiens (Human), UniProt Q92794). The experiment in a line: KAT6A Biochemical Assay (radiometric 384-well, [3H]-Ac-CoA, biotinylated H4(1-30) peptide). To be noted: 5 nM KAT6A enzyme solution (2×), 60 min reaction at room temperature.
The nature of data set [1]: Kinetic solubility in 50 mM phosphate buffer (pH 7.4). The class given is physicochemical. To be noted: for solubility kinetic at 24 h: aqueous buffer, kinetic from dmso stock, 50 mM phosphate buffer pH 7.4, 24 hours at room temperature. The protocol: 10 μL of 10 mM in DMSO of test and control compounds was added into lower chambers of whatman miniuniprep vials, respectively. 490 μL of 50 mM PB (pH 7.4) was added into lower chambers of the whatman miniuniprep vials, respectively. The solubility samples were vortexted for at least 2 minutes. The miniuniprep vials were shaken on a shaker for 24 hours at room temperature at the speed of 800 rpm and then centrifuged for 20 minutes (eg. 4000 rpm). The miniunipreps were compressed to prepare the filtrates for injection into HPLC system to calculate the concentration with standard curve.

The nature of data set [2]: Permeability in Caco-2 Assay. To be noted: human, pH 7.4, 2 hours; for Papp A→B at 2 h, 2 μM: Caco-2, 2.00 μM, pH 7.40. The class given is in vitro ADME. The protocol: (§1) Permeability of test compounds was determined in Caco-2 Assay. Caco-2 cells purchased from ATCC were seeded onto […] (PET) in 96-well Corning Insert plates at 1×10^5 cells/cm2, and refreshed medium every 4-5 days until to the 21st to 28th day for confluent cell monolayer formation. The transport buffer in the study was HBSS with 10.0 mM HEPES at pH 7.40±0.05. Test compound was tested at 2.00 μM bi-directionally in duplicate. Digoxin was tested at 10.0 μM bi-directionally in duplicate, while nadolol and metoprolol were tested at 2.00 μM in A to B direction in duplicate. Final DMSO concentration was adjusted to less than 1%. The plate was incubated for 2 hours in CO2 incubator at 37±1° C., with 5% CO2 at saturated humidity without shaking. And all samples after mixed with acetonitrile containing internal standard were centrifuged at 3200×g for 10 min. For nadolol and metoprolol, 200 μL supernatant solution was diluted with 600 μL ultra-pure water for LC-MS/MS analysis. For digoxin and test compounds, 200 μL supernatant solution was diluted with 200 μL ultra-pure water for LC-MS/MS analysis. Concentrations of test and control compounds in starting solution, donor solution, and receiver solution were quantified by LC-MS/MS methodologies, using peak area ratio of analyte/internal standard. After transport assay, lucifer yellow rejection assay was applied to determine the Caco-2 cell monolayer integrity.
(In general: Passage across Caco-2 layers is used to estimate intestinal permeability.)

In a further data set the test system is Caco-2 cells. Description: Permeability in Caco-2 Assay. Conditions: comparison from Table 4 (vs compound 47 or vs PF-9363). The class given is in vitro ADME. As for the experimental part:
as §1

KAT6A, sequence (Q92794 whole entry): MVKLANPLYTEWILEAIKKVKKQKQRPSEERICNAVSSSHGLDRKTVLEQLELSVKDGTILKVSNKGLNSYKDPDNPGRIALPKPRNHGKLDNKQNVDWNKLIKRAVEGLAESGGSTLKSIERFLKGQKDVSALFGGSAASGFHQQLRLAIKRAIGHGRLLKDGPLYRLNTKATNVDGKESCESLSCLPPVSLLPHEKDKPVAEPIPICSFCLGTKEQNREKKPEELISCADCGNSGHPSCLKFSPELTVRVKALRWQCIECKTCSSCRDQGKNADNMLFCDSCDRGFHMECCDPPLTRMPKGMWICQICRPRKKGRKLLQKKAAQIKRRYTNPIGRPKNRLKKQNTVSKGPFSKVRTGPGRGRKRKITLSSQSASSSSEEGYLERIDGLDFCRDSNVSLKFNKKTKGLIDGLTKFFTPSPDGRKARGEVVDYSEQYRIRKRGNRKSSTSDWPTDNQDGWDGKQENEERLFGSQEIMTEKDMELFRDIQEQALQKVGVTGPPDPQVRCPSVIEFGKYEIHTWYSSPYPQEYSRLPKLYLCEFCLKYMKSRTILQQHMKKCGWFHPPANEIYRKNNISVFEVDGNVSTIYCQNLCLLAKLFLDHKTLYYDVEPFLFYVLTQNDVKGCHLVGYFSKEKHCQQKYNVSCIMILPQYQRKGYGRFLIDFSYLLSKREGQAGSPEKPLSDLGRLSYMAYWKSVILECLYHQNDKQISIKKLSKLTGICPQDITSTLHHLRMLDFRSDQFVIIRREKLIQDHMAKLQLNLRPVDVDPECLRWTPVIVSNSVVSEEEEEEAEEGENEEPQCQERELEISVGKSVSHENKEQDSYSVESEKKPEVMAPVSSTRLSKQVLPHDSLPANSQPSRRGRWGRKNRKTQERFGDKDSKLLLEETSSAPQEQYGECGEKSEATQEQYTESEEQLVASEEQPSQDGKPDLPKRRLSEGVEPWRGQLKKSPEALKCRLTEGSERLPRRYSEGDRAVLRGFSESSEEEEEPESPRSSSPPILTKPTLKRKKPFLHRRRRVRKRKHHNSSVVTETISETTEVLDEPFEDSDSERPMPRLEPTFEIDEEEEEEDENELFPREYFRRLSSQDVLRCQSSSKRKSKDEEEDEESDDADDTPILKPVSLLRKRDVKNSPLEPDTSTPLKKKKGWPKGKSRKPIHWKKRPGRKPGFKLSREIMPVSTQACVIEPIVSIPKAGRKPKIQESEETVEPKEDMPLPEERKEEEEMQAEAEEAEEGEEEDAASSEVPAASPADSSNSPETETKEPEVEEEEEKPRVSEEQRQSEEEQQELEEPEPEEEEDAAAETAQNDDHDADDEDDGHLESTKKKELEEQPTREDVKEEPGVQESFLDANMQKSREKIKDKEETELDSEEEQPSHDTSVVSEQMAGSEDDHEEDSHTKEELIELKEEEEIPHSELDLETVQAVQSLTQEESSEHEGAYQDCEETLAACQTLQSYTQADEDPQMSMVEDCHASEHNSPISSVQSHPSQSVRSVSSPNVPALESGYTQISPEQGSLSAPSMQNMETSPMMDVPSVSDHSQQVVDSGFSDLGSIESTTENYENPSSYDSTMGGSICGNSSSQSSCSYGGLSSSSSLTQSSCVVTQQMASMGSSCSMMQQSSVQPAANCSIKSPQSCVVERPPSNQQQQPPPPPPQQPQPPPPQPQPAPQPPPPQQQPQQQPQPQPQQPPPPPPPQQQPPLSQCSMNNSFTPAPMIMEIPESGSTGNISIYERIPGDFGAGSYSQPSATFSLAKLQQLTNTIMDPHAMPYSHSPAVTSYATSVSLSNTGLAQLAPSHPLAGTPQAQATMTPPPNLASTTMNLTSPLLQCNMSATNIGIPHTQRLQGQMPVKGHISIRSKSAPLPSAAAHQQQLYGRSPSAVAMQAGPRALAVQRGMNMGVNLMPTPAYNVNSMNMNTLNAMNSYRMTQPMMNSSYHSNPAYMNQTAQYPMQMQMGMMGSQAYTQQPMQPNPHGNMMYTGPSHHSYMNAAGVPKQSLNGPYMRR

Turning to `COc1cccc(OC)c1S(=O)(=O)Nc1noc2cc(Oc3nccs3)c3c(c12)OCCC3` [Compound 35, 2,6-dimethoxy-N-(5-(thiazol-2-yloxy)-3,4-dihydro-2H-chromeno[8,7-d]isoxazol-9-yl)benzenesulfonamide], the half-maximal inhibitory concentration (IC50) – broadly, the concentration that gives 50% inhibition – on KAT6A is less than 10 nM. Moreover, in data set [1], the solubility (kinetic) – broadly, the concentration staying in solution when a stock, usually in DMSO, is diluted into the medium – at 24 h is 165 µM (≈ 80.8 µg/mL). Also, in data set [1] (comparison from Table 3), the “kinetic solubility compared with the otherwise identical compound having X group as carbon” value is on record as “improved kinetic solubility”. Further, the Papp A→B (usually the apparent permeability from the apical to the basolateral side of a cell layer) at 2 h, 2 μM in data set [2] is 8.59 ×10⁻⁶ cm/s. Besides, in the data set with Caco-2 cells, the “permeability compared with a reference compound” value is “improved permeability”.
In turn, `COc1cccc(OC)c1S(=O)(=O)Nc1noc2cc(Cn3cccn3)c3c(c12)OCCC3` [Compound 14, N-(5-((1H-pyrazol-1-yl)methyl)-3,4-dihydro-2H-chromeno [8,7-d]isoxazol-9-yl)-2,6-dimethoxybenzenesulfonamide] had an IC50 against KAT6A of less than 10 nM. For the same molecule, the kinetic solubility at 24 h in data set [1] came to 16.1 µM (≈ 7.58 µg/mL). In addition, the efflux ratio (commonly the permeability from basolateral to apical divided by that in the opposite direction, in the common usage) at 2 h, 2 μM in data set [2] (Caco-2, 2.00 μM bi-directionally) stood at 59.6. Also, the apparent permeability from apical to basolateral (Papp A→B) at 2 h, 2 μM in data set [2] came to 0.439 ×10⁻⁶ cm/s.
